Laboratory results taken from patent publication US12077501B2, “Compounds and compositions for intracellular delivery of agents” (ModernaTX, Inc., priority 2017, dated 2024).

Columns and labels:
[1] = test system: hEPO expression; assay: hEPO (miR126 + miR142) mRNA expression, Tables 8b-8e; format: in vivo; conditions: for AUC (mIU/mL*h): lipid:Chol:PEG 1 50:47.5:2.5, Table 8e
[2] = Lipid clearance: % dose remaining, Tables 7c and 8b-8e (species not given); format: in vivo
From the text: (§1) In contrast, hEPO expression in rats induced by administration of a nanoparticle composition including a compound according to one of formulae (I), (Ia1)-(Ia6), (Ib), (II), (IIa), (III), and (IIIa) was substantially […] than that measured for MC3. […] Tables 7c and 7d show additional protein expressions and clearance data from compositions with various compounds disclosed herein as compared to with MC3. Tables 7e, 7f and 7g show hEPO expression data in CD-1 mice at a dose of 0.5 mpk.

[3] = Encapsulation efficiency of RNA (QUANT-IT RIBOGREEN RNA assay); format: physicochemical
In short: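 Samples diluted to about 5 μg/mL RNA in TE buffer pH 7.5, treated with buffer or 2% Triton X-100 for 15 min at 37° C, then stained with RiboGreen (1:100). Fluorescence at about 480/520 nm, blank-subtracted; free RNA fraction is intact over Triton-disrupted signal.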

[4] = Particle size and polydispersity index of nanoparticle compositions (Zetasizer Nano ZS); format: physicochemical
Protocol: A Zetasizer Nano ZS (Malvem Instruments Ltd, Malvem, Worcestershire, UK) can be used to determine the particle size, the polydispersity index (PDI) and the zeta potential of the nanoparticle compositions in 1×PBS in determining particle size and 15 mM PBS in determining zeta potential.

[5] = Lipid purity change after storage in EtOH for 96 h at 25 or 37 °C; format: physicochemical
In short: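 Lipid stability was assessed as purity after storage in ethanol for 96 h at 25 °C or 37 °C.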

[6] = Lipid clearance: % dose remaining in liver of CD-1 mice; format: in vivo; conditions: intravenous, 0.5 mg/kg, CD-1 mouse, Table 8a
In short: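 Nanoparticle compositions containing the test compound were dosed to CD-1 mice at 0.5 mpk, and hEPO expression was measured. Clearance data were collected from the same compositions.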

[7] = test system: hEPO expression; assay: hEPO expression in CD-1 mice compared with MC3; format: in vivo; conditions: intravenous, 0.5 mpk, Table 7e
From the text: as §1

[8] = pKa of nanoparticle compositions; format: physicochemical; conditions: Table 1c
[9] = lipid:Chol:PEG 1 50:47.5:2.5, Table 8e
[10] = Table 1f, Formulated with lipid:Chol:DOPE:PEG 1 40:38.5:20:1.5
[11] = Table 1d, Formulated with lipid:Chol:DOPE:PEG 1 40:38.5:20:1.5
[12] = Table 1e, Formulated with lipid:Chol:DOPE:PEG 1 40:38.5:20:1.5
[13] = Table 1c, nanoparticle compositions

Compound	AUC (mIU/mL*h) [1] [mIU/mL*h]	% Dose Remaining (liver, 24 h) [2, 9] [%]	Lipid % change purity in EtOH, 25° C., 96 h [5] [%]	Lipid % change purity in EtOH, 37° C., 96 h [5] [%]	EE (%) [3, 13] [%]	% Dose Remaining 24 hr [6] [%]	AUC (p/s*h) CD-1 mice 0.5 mpk [7] [p/s*h]	PDI [4, 13]	Size (nm) [4, 13] [nm]	pKa [8]	also measured
CCCCCCCCCOC(=O)CCCCCCCN(CCCCCCCC(=O)OCCCCCCCCC)CCCCCN(CCCCCCCCC)CCCCCCCCC [Compound 177, Dinonyl 8,8′-((5-(dinonylamino)pentyl)azanediyl)dioctanoate]	6.84E+07	35.91	–	–	–	–	–	–	–	–	–
CCCCCCCCCOC(=O)CCCCCCCN(CCCCCCCC(=O)OC(CCCCCCCC)CCCCCCCC)CCCCC(=O)N(C)CCN(C)C(=O)CCCCN(CCCCCCCC(=O)OCCCCCCCCC)CCCCCCCC(=O)OC(CCCCCCCC)CCCCCCCC [Compound 183, Di(heptadecan-9-yl) 15,18-dimethyl-9,24-bis(8-(nonyloxy)-8-oxooctyl)-14,19-dioxo-9,15,18,24-tetraazadotriacontanedioate]	–	–	–	–	–	–	–	–	–	–	EE (%) [3, 10]: 99.1%; AUC ([1]; Table 8d): 6.53e+07 pg·h/mL; % Dose Remaining (liver, 24 h) ([2]; Table 8d): 1.87%; PDI [4, 10]: Multimodal; Size (nm) [4, 10]: 128.9 nm
CCCC/C=C\CCCCCCCCN(CCCOC(=O)CCCCCCCCC)CC(=O)N1CCN(C(=O)CN(CCCCCCCCC)CCN(CCCCCCCCC)CCCCCCCCC)CC1 [Compound 140, (Z)-3-((2-(4-(N-(2-(Dinonylamino)ethyl)-N-nonylglycyl)piperazin-1-yl)-2-oxoethyl)(tetradec-9-en-1-yl)amino)propyl Decanoate]	–	–	–	–	–	–	–	–	–	–	EE (%) [3, 11]: 86.9%; AUC ([1]; Table 8b): 4.55e+07 pg·h/mL; % Dose Remaining (liver, 24 h) ([2]; Table 8b): 1.66%; PDI [4, 11]: 0.14; Size (nm) [4, 11]: 131.1 nm
CCCCCCCCCOC(=O)CCCCCCCN(CCCCCCCC(=O)OCCCCCCCCC)CCOCCOCCN(CCCCCCCCC)CCCCCCCCC [Compound 173, Nonyl 18-nonyl-9-(8-(nonyloxy)-8-oxooctyl)-12,15-dioxa-9,18-diazaheptacosanoate]	6.70E+06	8.55	–	–	–	–	–	–	–	–	–
CCCCCCCCCCCCCC(=O)OCCN(CCCCCCCCC)CCN(CCCCCCCCC)CCCCCCCCC [Compound 169, 2-((2-(Dinonylamino)ethyl)(nonyl)amino)ethyl Tetradecanoate]	–	–	–	–	–	–	–	–	–	–	EE (%) [3, 12]: 97.6%; AUC ([1]; Table 8c): 0 pg·h/mL; % Dose Remaining (liver, 24 h) ([2]; Table 8c): 0.30%; PDI [4, 12]: 0.24; Size (nm) [4, 12]: 72.5 nm
CCCCCCCCCN(CCCCCCCCC)CCN(CCCCCCCCC)CC(=O)OC(C)C(C)OC(=O)CN(CCCCCCCCC)CCCCCCCCC (stereo not drawn) [Compound 188, 3-((N-(2-(dinonylamino)ethyl)-N-nonylglycyl)oxy)butan-2-yl dinonylglycinate]	–	–	–	–	–	–	–	–	–	–	EE (%) [3, 10]: 97.5%; AUC ([1]; Table 8d): 8.76e+06 pg·h/mL; % Dose Remaining (liver, 24 h) ([2]; Table 8d): 117.31%; PDI [4, 10]: 0.12; Size (nm) [4, 10]: 78.0 nm
CCCCCCCCCOC(=O)CCCCCCCN(CCCCCCCC(=O)OCCCCCCCCC)CCOCCN(CCCCCCCCC)CCCCCCCCC [Compound 179, Dinonyl 8,8′-((2-(2-(dinonylamino)ethoxy)ethyl)azanediyl)dioctanoate]	7.79E+06	26.22	–	–	–	–	–	–	–	–	–
CCCCCCCCCOC(=O)CCCCCCCN(CCCCCCCC(=O)OC(CCCCCCCC)CCCCCCCC)CCOCCOCCN(CCCCCCCCC)CCCCCCCCC [Compound 174, Heptadecan-9-yl 18-nonyl-9-(8-(nonyloxy)-8-oxooctyl)-12,15-dioxa-9,18-diazaheptacosanoate]	5.03E+07	30.05	–	–	–	–	–	–	–	–	–
CCCCCCCCCCN(CCCCCCCCCC)CCCC(=O)N1CCN(C(=O)CCCN(CCCCCCCCCC)CCCCCCCCCC)CC1 [Compound 146, 1,1′-(Piperazine-1,4-diyl)bis(4-(didecylamino)butan-1-one)]	–	–	–	–	–	–	–	–	–	–	AUC ([1]; Table 8b): 1.27e+07 pg·h/mL; % Dose Remaining (liver, 24 h) ([2]; Table 8b): 81.04%
CCCCCCCCCOC(=O)CCCCCCCN(CCCCCCCC(=O)OC(CCCCCCCC)CCCCCCCC)CCCCCN(CCCCCCCCC)CCCCCCCCC [Compound 178, Heptadecan-9-yl 8-((5-(dinonylamino)pentyl)(8-(nonyloxy)-8-oxooctyl)amino)octanoate]	8.44E+07	44.93	–	–	–	–	–	–	–	–	–
CCCCCCCCCCCCCCN(CCCCCCCCCCCC(=O)OC)CCC1CCN(C(=O)CN(CCCCCCCCC)CCN(CCCCCCCCC)CCCCCCCCC)C1 (stereo not drawn) [Compound 127, Methyl 12-((2-(1-(N-(2-(dinonylamino)ethyl)-N-nonylglycyl)pyrrolidin-3-yl)ethyl)(tetradecyl)amino)dodecanoate]	–	–	2.7	2.9	99.5	0.86	3.45E+07	0.20	79.8	6.81	–
CCCCCCCCCCCCCCN(CCCCCC(=O)OCCCCCCC)CC(=O)N1CCN(C(=O)CN(CCCCCCCCC)CCN(CCCCCCCCC)CCCCCCCCC)CC1 [Compound 91, Heptyl 6-((2-(4-(N-(2-(dinonylamino)ethyl)-N-nonylglycyl)piperazin-1-yl)-2-oxoethyl)(tetradecyl)amino)hexanoate]	–	–	1	2.3	97.6	9.19	3.22E+07	0.21	82.9	6.74	–
CCCCCCCCCCCCCCN(CCCOC(=O)CCCCCCCCC)CCC1CCCN(C(=O)CN(CCCCCCCCC)CCN(CCCCCCCCC)CCCCCCCCC)C1 (stereo not drawn) [Compound 122, 3-((2-(1-(N-(2-(Dinonylamino)ethyl)-N-nonylglycyl)piperidin-3-yl)ethyl)(tetradecyl)amino)propyl decanoate]	–	–	1	4.1	99.1	0.05	5.71E+07	0.23	77.1	6.44	–
CCCCCCCCCN(CCCCCCCCC)CCN(CCCCCCCCC)CC(=O)N1CCN(C(=O)CN(CCCCCCCCC)CCCCCOC(=O)OC)CC1 [Compound 109, 5-((2-(4-(N-(2-(Dinonylamino)ethyl)-N-nonylglycyl)piperazin-1-yl)-2-oxoethyl)(nonyl)amino)pentyl methyl carbonate]	–	–	0	4.1	95.0	0.54	5.56E+07	0.16	75.0	7.27	–
CCCCCCCCCCCCCCN(CCCOC(=O)CCCCCCCCC)CC(=O)N1CCN(C(=O)CN(CCCCCCCCC)CCN(CCCCCCCCC)CCCCCCCCC)CC1 [Compound 89, 3-((2-(4-(N-(2-(Dinonylamino)ethyl)-N-nonylglycyl)piperazin-1-yl)-2-oxoethyl)(tetradecyl)amino)propyl decanoate]	–	–	2.3	3.9	97.6	0.05	1.36E+08	0.20	80.1	6.94	–
CCCCCCCCCOC(=O)CCCCCCCN(CCCCCCCC(=O)OC(CCCCCCCC)CCCCCCCC)CCOCCN(CCCCCCCCC)CCCCCCCCC [Compound 180, Heptadecan-9-yl 8-((2-(2-(dinonylamino)ethoxy)ethyl)(8-(nonyloxy)-8-oxooctyl)amino)octanoate]	6.53E+07	50.47	–	–	–	–	–	–	–	–	–
CCCCCCCCCCCCCCN(CCCOC(=O)CCCCCCCCC)CCC1CCN(C(=O)CN(CCCCCCCCC)CCN(CCCCCCCCC)CCCCCCCCC)C1 (stereo not drawn) [Compound 126, 3-((2-(1-(N-(2-(Dinonylamino)ethyl)-N-nonylglycyl)pyrrolidin-3-yl)ethyl)(tetradecyl)amino)propyl decanoate]	–	–	0.6	2.2	98.7	0.09	6.24E+07	0.24	87.0	6.76	–
CCCCCCCCCN(CCCCCCCCC)CCN(CCCCCCCCC)CC(=O)N1CCC(CCOC(=O)CN(CCCCCCCCC)CCCCCCCCC)C1 (stereo not drawn) [Compound 103, 2-(1-(N-(2-(Dinonylamino)ethyl)-N-nonylglycyl)pyrrolidin-3-yl)ethyl Dinonylglycinate]	–	–	1.5	5.7	99.0	71.45	1.82E+08	0.17	76.9	7.25	–
